What is called melting point is the temperature of the solid-liquid transition.

Results on 86 compounds are retold here after a melting point compilation (Tetko et al.; mined from patent text by program, amines drawn as free bases though some values may be those of a salt).

Molecules are shown by their SMILES.

In turn, `Cn1cc(C(=O)C(C)(C)C)c(=O)c(-c2cccc(C(F)(F)F)c2)c1` had a melting point of 86 to 88 °C. `CCOC(=O)c1cnoc1-c1ccc([N+](=O)[O-])cc1` displayed a melting point of 73 to 76 °C. `Cc1scc2c1N(C(=O)N1CCC(CCCCN3CCCCC3)CC1)c1ccccc1NC2=O`: the melting point is 209 to 210 °C. Compound `CCn1c(=O)c(=O)[nH]c2cc([N+](=O)[O-])c(-n3cccc3)cc21` showed a melting point of over 300 °C.

`CC(C)(C)OC(=O)Nc1ccc(C#Cc2ccc(F)cc2F)cc1N` registered a melting point of 113 to 116 °C. `CC(C)Oc1cc(C(C)C)c2c(c1)S(=O)(=O)N(c1c(F)c(F)nc(F)c1F)C2=O` showed a melting point of 130 °C.

The compound `CC(C)OC1CCC(=O)N1S(=O)(=O)C=Cc1ccc([N+](=O)[O-])cc1` (stereo unspecified) gave a melting point of 178 to 179 °C. In turn, `ClC1=Nc2ccccc2Sc2c1csc2Cl` registered a melting point of 163 to 165 °C. `CN1C[C@@H](C(=O)OC(C)(C)C)N(C(=O)OCc2ccccc2)C1=O` registered a melting point of 102 to 103 °C. With `C[C@@H]1Nc2ccc(-c3cc(F)cc(C#N)c3)cc2[C@](C)(c2ccccc2)O1`, the melting point is 128 to 129 °C. Under `CCc1noc(C)c1-c1[nH]c2ccccc2c1CC(N)=O` stands 194 to 195 °C; under `N#Cc1cc2c(cc1C(F)(F)F)[nH]c(=O)c(=O)n2OC(=O)c1ccccc1`, 186 °C. `O=C(O)c1ccc(-c2ccc3nnn(Cc4c(F)ccc(F)c4Cl)c3n2)cc1F` showed a melting point of 211 to 213 °C. With `CCn1c(=O)c2c(nc(/C=C/c3cc(OC)c(OC(C)=O)c(OC)c3)n2C)n(CC)c1=O`, the melting point was in the range of 248 to 249 °C.

`CC1CCc2ccc(OCC(O)CCl)cc2O1` (stereo unspecified) had a melting point of 70 to 72 °C. `CN(C)c1ccc(C2OC(=O)c3c(Cl)c(Cl)c(Cl)c(Cl)c32)c(N(C)C)c1` (stereo unspecified) returned a melting point of 195 to 197 °C. Take `CCn1nc(C)c2c1C(=O)NCC(c1ccccc1O)=N2`: the melting point came out at 220 °C.

With `Nc1nc(NCc2ccccc2)nc(-c2cc(Cl)ccc2Cl)n1`, the melting point fell in the range of 200 to 201 °C. Under `CCn1c2ccccc2c2[nH]c(=O)c3nccn3c21` stands 315 °C; under `COc1c(CC#N)c2c(c3c1OC(C)(C)C3)C(c1cccc(C(=O)NC(C)(C)C(N)=O)c1)=NC(C)(C)C2`, 217 to 219 °C. In the case of `O=C1CCC(c2ccc(NN=C(CO)c3ccccc3)cc2)=NN1`, the melting point lay within 88 to 96 °C. On to `COCCOCOc1ccc2cc(C(=O)CNCc3cccc(-c4ccc(Nc5ccccc5C(=O)O)cc4)c3)ccc2c1`, for which the melting point came to 72 °C. Turning to `O=[N+]([O-])c1cc(C(c2ccc(NCc3ccccc3)c([N+](=O)[O-])c2)(C(F)(F)F)C(F)(F)F)ccc1NCc1ccccc1`, the melting point was in the range of 168 to 172 °C. Under `CCOC(=O)C1=C(C)N(C)C(C)=C(C(=O)OCC)C1c1ccccc1/C=C/C(=O)OC(C)(C)C` stands 149 to 151 °C; under `CONS(=O)(=O)c1ccc(C(=O)C=Cc2cc(-c3cc4ccccc4n3C)c(OC)cc2OC)cc1`, 214 to 216 °C; under `COCC(NC(=O)OCc1ccccc1)C(=O)NCc1ccccc1` (stereo unspecified), 112 to 114 °C. Compound `CC(C)=CCCC(C)=CCCC(C)=CCCC(C)=CC=CC(C)=CC(=O)O` registered a melting point of 45.5 to 46.5 °C. Under `Nc1cc(I)cc(CF)c1` stands 48.5 to 50 °C; under `CCC(C)OC1OC(C(O)N(CC(C)C)C(=O)N(CCCl)N=O)C(O)C1O` (stereo unspecified), 80 to 82 °C; under `Nc1cc(-c2ccncc2)cc2nc(-c3ccccc3)nn12`, 207 to 210 °C. Turning to `CC(C)Cn1c(CNC(=O)OC(C)(C)C)c(-c2ccc(F)cc2)c2cc(/C=C/C(N)=O)ccc2c1=O`, the melting point was in the range of 161 to 163 °C. With `CC(=O)OCC1=C(c2ccccc2)C(=O)N(C(C)(C)C(=O)Nc2cccc(C(F)(F)F)c2)CO1`, the melting point was 76.5 to 77.5 °C.

`Nc1ccc(Oc2ncnc(Oc3ccccc3Cl)c2F)c(Cl)c1Cl`: the melting point lay in the range of 162 to 163 °C. As to `CN1C[C@H](O)C[C@H]1C(N)=O`, the melting point was 138 to 140 °C. `COc1cc2[nH]c(=O)[nH]c(=O)c2cc1Cl` gave a melting point of 356 to 358 °C. For the compound `CCN(Cc1cc(Br)ccc1OCc1ccccc1)c1ncc(C(=O)NCc2nnn[nH]2)s1`, the melting point is 232 to 236 °C. Under `O=C(N[C@@H](Cc1ccc(OCc2ccccc2)cc1)C(=O)O)c1cn2cc(/C=C/c3ccc(Cl)cc3)ccc2n1` stands 267 to 270 °C; under `CNc1nc(Cc2cc(OC)c(OC)c(OC)c2)nc2sc(C#N)c(C)c12`, 194 to 195 °C. With `O=CNc1nc(NC2CC2)nc(N2CCOCC2)n1`, the melting point came to 288 °C. As for `CCOC(=O)C1=C(C)NC(N)=C(C(=O)OCC)C1c1cccc(Cl)c1` (stereo unspecified), the melting point was in the range of 157 to 159 °C. For `c1cc2cc(-c3cn([C@H]4CN5CCC4CC5)nn3)ccc2o1`, the melting point was 178 °C. As for `CC(C)NC1=NS(=O)(=O)c2ccc(C3CCCCC3)cc2N1`, the melting point lay in the range of 131 to 133 °C.

As for `CCOC(=O)c1ccc(OCCCN2CCN(c3ccc(Cl)nn3)CC2)cc1`, the melting point is 125 to 127 °C. `O=C(O)CCC(=O)c1ccc(Br)c(S(=O)(=O)Cl)c1` returned a melting point of 183 to 185 °C. Regarding `O=C(Oc1cc(/C=C/c2ccc(O)cc2)cc(OC(=O)c2cc(O)c(O)c(O)c2)c1)c1cc(O)c(O)c(O)c1`, the melting point lay in the range of 210 to 212 °C. As for `COc1ccc(OC)c2c(Nc3cccc(N(C)C)c3)c(C#N)cnc12`, the figure is 103 to 105 °C; as for `CCCCCCCCCCCCCCCCOCC(CO)Oc1cc(-c2ccccc2)on1` (stereo unspecified), 45.5 to 46.5 °C.

`Nc1c(F)c(N2Cc3cccc(Cl)c3C2)c(F)c2c1c(=O)c(C(=O)O)cn2C1CC1`: the melting point is over 280 °C.

`CNC(=O)c1cc(C)ccc1Nc1nc(Cl)ncc1Cl` displayed a melting point of 192 to 210 °C. On to `Cc1ccc(C(O[Si](C)(C)C(C)(C)C)C(=O)N2CCOCC2)cc1` (stereo unspecified), for which the melting point lay within 64 to 65 °C.

For the compound `Cc1nc(N(C)C)n2ncc(-c3ccncc3)c2n1`, the melting point was 195 to 197 °C. `CSC(=S)C1(c2ccccn2)OCCCS1` (stereo unspecified): the melting point stood at 116 °C. In turn, `Cc1cc(C(=O)NN)ccc1-c1ccc(C(=O)C2CN(C)CCC23COc2cc4c(cc23)NCC4)cc1` (stereo unspecified) yielded a melting point of 130 to 135 °C.

`Nc1c(CC(=O)O)cccc1Oc1ccccc1F` yielded a melting point of 122 to 123 °C.

As for `CC1(C)C(=O)Nc2cc3[nH]c(C4CC4)nc3cc21`, the melting point was 266 to 268 °C. Consider `Cc1ccc(NC(=O)c2cccc(C(F)(F)F)c2)cc1NC(=O)N(C)c1cc(Nc2ccc(N3CCN(C)CC3)cc2)ncn1`, for which the melting point lay within 190 to 191 °C. `Cc1ccc2c(c1)N(CC(=O)c1ccccc1C)C(=O)C(NC(=O)Nc1cccc(C(=O)O)c1)CN2C(=O)OCc1ccccc1` (stereo unspecified) showed a melting point of 144 to 147 °C. Consider `CCn1cc(C(=O)O)c(=O)c2cc(F)c(N3CCSCC3)nc21`, for which the melting point is 241 to 243 °C. For the compound `NCC1Cc2cc(-c3ccccc3)cc(-c3ccc(F)cc3)c2O1` (stereo unspecified), the melting point was over 250 °C.

`Nc1ccc(NCCNS(=O)(=O)c2ccccc2)cc1` displayed a melting point of 144 °C.

The compound `CCCCOC(=O)C(NC(=O)OC(C)(C)C)c1c[nH]c2ccccc12` (stereo unspecified) yielded a melting point of 127 to 128 °C. For the compound `c1ccc(Sc2ccc[nH]2)cc1`, the melting point lay within 86 to 87 °C.

In the case of `CCNC(=O)n1nc(Oc2ccc([N+](=O)[O-])c(OCC)c2)cc1C`, the melting point lay within 110 to 112 °C. For `COc1cc(C=C2COCC3=C2N=C2SCCN2C3c2cc(OC)c(OC)c(OC)c2)cc(OC)c1OC` (stereo unspecified), the melting point fell in the range of 153 to 155 °C.

As to `C=C1N(c2ccc(Cl)cc2)C(=O)OC12CCN(C(=O)N1CCN(CCO)CC1)CC2`, the melting point was in the range of 185 to 186 °C. Under `O=C1N(c2cc(Cl)cc(Cl)c2)C(=O)C2(Cc3ccc(-c4nnn[nH]4)cc3)CCCN12` (stereo unspecified) stands 195 °C; under `COC(=O)c1cc(-c2ccc(Cl)cc2)n(Cc2ccc(Cl)cc2Cl)n1`, 105 °C; under `COC1(c2ccccc2)N=CC(=O)N(C)c2ccc(Cl)cc21` (stereo unspecified), 146 to 147 °C. With `CN(CC(=O)O)C(=O)CN1CCCC1=O`, the melting point stood at 178 °C. Under `O=C(c1ccc(O)cc1)c1c(F)c(F)c(F)c(F)c1F` stands 138 to 140 °C; under `CC(=O)c1ccccc1-c1cccc(-n2cnc(-c3nc(C)no3)c2)c1`, 144 to 146 °C; under `COc1cc2c(c3c1OC(C)(C)C3)C(c1cccc(-c3ccc(NC(C)=O)nc3)c1)=NC(C)(C)C2`, 208 to 209 °C. In turn, `N#Cc1cc(C#N)c(-c2ccc(Cl)cc2)[nH]1` came in with a melting point of 235 to 240 °C.

`Cc1ccc2onc(O)c2c1` had a melting point of 95 to 97 °C. In turn, `CCOC(=O)c1c(Cn2cnnc2)nc2cc3c(cc2c1-c1ccc(OC)c(OC)c1)OCCO3` registered a melting point of 237 to 239 °C. In turn, `CN(C)CCCNC(=O)c1ccccc1-c1nnc(CSCCOc2ccccc2)o1` registered a melting point of 60 to 65 °C. Take `CCOC=C1C=C(C(C)(C)C)C(=O)C(C(C)(C)C)=C1`: the melting point fell in the range of 114 to 117 °C. As for `CCOC(=O)c1cc(C)n(-c2cccnc2)c1-c1ccccc1`, the figure is 102 to 103 °C; as for `COc1cc(CCCN2CCc3cc(OC)c(OC)cc3C2)ccc1NC(=O)c1cccc2c(=O)c3cccc(OC)c3[nH]c12`, 188 °C; as for `COc1cc(CCC(=O)C2=C(Cl)CCC2)cc(OS(=O)(=O)c2ccc(C)cc2)c1OC`, 73 °C. In turn, `O=C1OCN(C(=O)OCc2ccccc2)[C@H]1CCBr` showed a melting point of 85 °C. In the case of `c1ccc(CNCCOc2ccc3ccccc3c2)cc1`, the melting point was determined as 94 °C. In turn, `CCCN(CCC)c1nccc2ccc(C(=O)N[C@@H](Cc3cc(F)cc(F)c3)[C@H](O)CNCc3cccc(CC)c3)cc12` returned a melting point of 142 to 151 °C.

For `CC(=O)N1CCC(Nc2ncc3cc(-c4ccccc4C)c(=O)n(C4CCOCC4)c3n2)CC1`, the melting point lay within 235 to 237 °C.

For the compound `Cc1cccc(C2(CNC(=O)Nc3c(C(C)C)cccc3C(C)C)CCC2)c1`, the melting point lay in the range of 148 to 151 °C. `Cc1ccc(S(=O)(=O)N2CCCC2c2ccc(F)cc2)cc1Cl` (racemic) registered a melting point of 134 °C.
